Measurements reported in EP0695187B1, “INHIBITION, CONTROL AND REGRESSION OF ANGIOGENESIS WITH HYALURONIC ACID OR HYALURONIC ACID AND NSAID” (JAGOTEC AG, priority 1993, dated 1994).
“And” between values parts separate entries of the source, which are not always exact repeats. Identical values can stand only once.

Columns and labels:
Type in all cases: in vivo, mice
[1] = tested on: vasculature within the murine chronic granulomatous air pouch; test: murine chronic granulomatous air pouch, carmine vascular cast; dosing daily from induction for 6 days; settings: for effect on the tissue vascularity: daily
Method: The Applicants chose a simple model of murine angiogenesis induced with a chronic granulomatous reaction to Freund's complete adjuvant in croton oil. The Applicants assessed this process using a modification of this method by the formation of an intravascular cast incorporating carmine red. Chronic granulomatous air pouches were induced by the sc injection of 3 ml air into anaesthetized mice (25-30 g, Tuck Original) and 0.5 ml Freund's complete adjuvant with 0.1% croton oil 24 hours later. The mice were dosed for 6 days and the vascular content assessed by the formation of a vascular cast. This was formed by the intravenous injection of 1 ml 25% carmine red in 10% gelatin at 40°C into warmed mice. This overcame any pharmacological or temperature-related alterations in peripheral vasomotor tone which may have invalidated the results. The carcasses were chilled and the granulomatous air pouch linings dissected. These were dried at 56°C, weighed, and papain digested. The dye was then be dissolved by the addition of 1 ml 0.05 M NaOH, and the samples were then centrifuged at 2500 g for 20 minutes. After these were filtered, the absorbances were read at 490 nm using a multiwell plate reader (Biotek). The results were then expressed as either µg dye/mg dry weight of tissue. […] On the seventh day after induction the vascularity of the tissue was assessed. […] The formation of a subcutaneous air pouch in the dorsum of mice allows the formation of a lining which responds to produce a chronic inflammatory lesion in response to various antigens, irritants and foreign bodies. It can also be used for the introduction of drugs and various other treatments into the site of inflammation and the collection of inflammatory exudate. […] For this experiment female mice (TO. 25-30g, 10 per group) were lightly anesthetized with hypnorm/hypnoval. Air pouches were formed by the subcutaneous injection of 3 ml of filter-sterilized air, into the dorsum of each mouse. After 24 hours, chronic inflammation was induced in the air pouch lining by the injection of 0.5 ml Freund's complete adjuvant (FCA) supplemented with 0.1% croton oil. Animals were dosed daily from the time o: injection of FCA/croton oil, for 6 Days. At which point the analysis was performed. […] Each mouse was then placed into a water jacketed incubation chamber at 37°C and injected i.v. with 1 ml of 15% carmine dye in 10% gelatin (in Hanks balanced salt solution) with syringe and solution prewarmed to 40°C. Cadavers were then chilled at 4°C for 4 hours. The granulomatous tissue was dissected free and dried in an oven at 56°C for 48 hours. The dried granuloma was weighed and then digested in 9 ml of papain solution (12-Units/ml in 0.05 M phosphate buffer, pH 7.0, supplemented with 0.33g/l N-acetyl cysteine), at 56°C for 48 hours. The digests were then made up to 10 ml with 5.0M NaOH and vortexed, to solubilise the dye and centrifuged. The digests were filtered through 0.2µm cellulose nitrate membranes and […] samples aliquoted into 96 well plates and analyzed for dye content by spectrophotometric analysis at […] using a microplate reader. Vascular volume was calculated as carmine content per mg dry mass of tissue.

[2] = tested on: vasculature within the murine chronic granulomatous air pouch; test: further protocol: air pouch granuloma grown 7 days untreated, then topical daily treatment (regression); settings: for VI: mean vascularity index; for Carmine / Dry wt. gran.: mean
Method: In another protocol, the use of the air pouch on the mice was once again employed. Only this time, after formation of the pouches and injection of .5 ml Freund's complete adjuvant (FCA) supplemented with 0.1% croton oil, the granuloma in the mice were permitted to grow for 7 days (they were left unhealed for 1 week). […] The granulomatous tissue was dissected and treated as previously described. The weight of the granuloma (including the carmine red dye) and weight of the carmine red dye (which displaced the blood) were determined for each mouse sacrificed at each stage (after 7, 14 and 21 days). The vascularity index (VI) was calculated and the mean vascularity index was calculated for each group as follows: Vascularity Index (VI) =(weight of carmine red dye in GRANULOMA)/(Weight of GRANULOMA (including carmine red dye)) [formula]

[3] = tested on: vasculature within the murine chronic granulomatous air pouch; test: murine chronic granulomatous air pouch, carmine vascular cast; dosing daily from induction for 6 days; settings: Topical, n = 8 (Table Three summary)
[4] = i-pouch, n = 10 (Table Three summary)
[5] = intra-pouch injection, daily 6 days, group mean, N = 10
[6] = 2 week (one week of topical application)
[7] = 3 week (two weeks of topical application)

SMILES: O=C(O)Cc1ccccc1Nc1c(Cl)cccc1Cl [diclofenac (diclo), Diclofenac]
- Carmine dye (ug) Mean [1, 4]: 92.6 µg
- ug.dye/mg.gramuloma Mean [1, 4]: 0.7363 ug.dye/mg.gramuloma
- effect on the tissue vascularity ([1]; intra-lesional injection, assessed on seventh day (Figure 1(b))): no significant effect
- Absorbness / Absorbous ([1]; intra-pouch injection, daily 6 days, absorbance at 490 nm of digest, individual animals, listed as Saline + diclo): 0.773 and 0.242 and 0.730 and 0.400 and 0.409 and 0.262 and 0.402 and 0.468
- ug dye mg ([1]; intra-pouch injection, daily 6 days, carmine per mg dry tissue, individual animals, listed as Saline + diclo): 1.194 ug dye mg and 0.320 ug dye mg and 1.577 ug dye mg and 1.050 ug dye mg and 0.674 ug dye mg and 0.442 ug dye mg and 0.526 ug dye mg and 0.471 ug dye mg and 0.586 ug dye mg and 0.520 ug dye mg
- Dry wt ([1]; intra-pouch injection, daily 6 days, dried granuloma, individual animals, listed as Saline + diclo): 158 mg and 99 mg (2×) and 124 mg and 162 mg and 170 mg and 122 mg
- ug carmine [1, 5]: 92.75 µg
- ug dye mg [1, 5]: 0.7363 ug dye mg
- ug carmine ([1]; intra-pouch injection, daily 6 days, individual animals, listed as Saline + diclo): 166 µg and 50.5 µg and 156 µg and 104 µg and 86.7 µg and 54.8 µg and 85.2 µg and 63.7 µg and 99.5 µg and 61.3 µg
- effect on the tissue vascularity ([1]; topical, assessed on seventh day (Figure 1(a))): no significant effect
- VI ([2]; 2 week (one week of topical application), listed as Diclo Alone): 1.3 µg/mg
- VI ([2]; 2 week (one week of topical application), listed as aq. cream/Diclo): 1.300 µg/mg
- Carmine [2, 6]: 108.63 µg
- Dry wt. gran. [2, 6]: 84.41 mg
- Carmine [2, 7]: 150.07 µg
- Dry wt. gran. [2, 7]: 112.19 mg
- Carmine dye (ug) Mean [3]: 187.3 µg
- Granuloma dry wt.(mg) Mean [3]: 166.3 mg
- ug.dye/mg.gramuloma Mean [3]: 1.216 ug.dye/mg.gramuloma
